As usually defined, the IC50 is the midpoint of a concentration-inhibition curve. Read a high IC50 as weaker potency in that assay.

For this test, the system named is Jurkat. As to the kind of experiment: CellTiter-Glo Luminescent Cell Viability Assay, half inhibitory concentration (IC50) on tumor cell proliferation. It counts as cell-based. To be noted: Homo sapiens, Jurkat cells, 72 h treatment. As for the experimental part: The tumor cells used herein were cultured in a cell culture medium at 37° C. in an incubator with 5% CO2, where the cell culture medium was supplemented with 10% FBS, as well as penicillin at a final concentration of 100 U/mL and streptomycin at a final concentration of 100 μg/mL. Prior to experimentation, all cells used were identified as correct cells by STR cells, and were negative for mycoplasma through routine testing.
IC50 values of the compounds of the present disclosure (including the compounds in Table 1 and compounds of examples) were measured using the CellTiter-Glo® Luminescent Cell Viability Assay kit from Promega Corporation. Assay details are as follows: Cells were seeded in 100 μL RPMI1640 medium containing serum at a density of 20,000 cells/well. After 24 h, the inoculated cells were treated with the compounds of the present disclosure which were serially diluted. After the cells were treated with the compounds of the present disclosure for 72 h, the CellTiter-Glo® reagent was added to the culture medium for cell viability assessment according to the instructions provided with the kit. DMSO served as the negative control, and FK866 inhibitor was used as the positive control, both treated with the same protocol as the compounds of the present disclosure. The growth inhibition of the compounds of the present disclosure on cells was plotted by Prism Graphpad software, and the IC50 values of the compounds of the present disclosure were calculated therefrom.
In general terms: Cellular ATP, detected with luciferase, serves as a proxy for viable cell number.
Take `O=C(/C=C/c1cccnc1)NCCCCC1CCN(C(=O)c2ccc(N3CCN(CCCCCCCSc4cccc5c4CN(C4CCC(=O)NC4=O)C5=O)CC3)cc2)CC1` (stereo not shown) [SIAIS630134, (E)-N-(4-(1-(4-(4-(7-((2-(2,6-dioxopiperidin-3-yl)-1-oxoisoindolin-4-yl)thio)heptyl)piperazin-1-yl)benzoyl)piperidin-4-yl)butyl)-3-(pyridin-3-yl)acrylamide]: the IC50 was 7.28 nM.

In turn, `O=C(/C=C/c1cccnc1)NCCCCC1CCN(C(=O)c2ccc(N3CCN(CCCCCCCCSc4cccc5c4CN(C4CCC(=O)NC4=O)C5=O)CC3)cc2)CC1` (stereo not shown) [SIAIS630135, (E)-N-(4-(1-(4-(4-(8-((2-(2,6-dioxopiperidin-3-yl)-1-oxoisoindolin-4-yl)thio)octyl)piperazin-1-yl)benzoyl)piperidin-4-yl)butyl)-3-(pyridin-3-yl)acrylamide] yielded an IC50 of 4.02 nM.

Compound `O=C(/C=C/c1cccnc1)NCCCCC1CCN(C(=O)c2ccc(N3CCN(CCCCCCCCCCCSc4cccc5c4CN(C4CCC(=O)NC4=O)C5=O)CC3)cc2)CC1` (stereo not shown) [SIAIS630136, (E)-N-(4-(1-(4-(4-(11-((2-(2,6-dioxopiperidin-3-yl)-1-oxoisoindolin-4-yl)thio)undecyl)piperazin-1-yl)benzoyl)piperidin-4-yl)butyl)-3-(pyridin-3-yl)acrylamide] came in with a concentration for half-maximal inhibition (IC50) of 64.5 nM.

For `Cc1ncsc1-c1ccc(CNC(=O)[C@@H]2C[C@@H](O)CN2C(=O)[C@@H](NC(=O)CCOCCOCCC(=O)N2CCN(c3ccc(C(=O)N4CCC(CCCCNC(=O)/C=C/c5cccnc5)CC4)cc3)CC2)C(C)(C)C)cc1` [SIAIS631011, (2S,4R)-1-((S)-3,3-dimethyl-2-(3-(2-(3-oxo-3-(4-(4-(4-(4-((E)-3-(pyridin-3-yl)acrylamido)butyl)piperidine-1-carbonyl)phenyl)piperazin-1-yl)propoxy)ethoxy)propanamido)butanoyl)-4-hydroxy-N-(4-(4-methylthiazol-5-yl)benzyl)pyrrolidine-2-carboxamide], the IC50 turned out to be 140 nM.

Compound `O=C(/C=C/c1cccnc1)NCCCCN1CCN(C(=O)c2ccc(N3CCN(CCCCCC#Cc4cccc5c4CN(C4CCC(=O)NC4=O)C5=O)CC3)cc2)CC1` (stereo not shown) [SIAIS631045, (E)-N-(4-(4-(4-(4-(7-(2-(2,6-dioxopiperidin-3-yl)-1-oxoisoindolin-4-yl)hept-6-yn-1-yl)piperazin-1-yl)benzoyl)piperazin-1-yl)butyl)-3-(pyridin-3-yl)acrylamide] yielded an IC50 of 80 nM.

Consider `O=C(/C=C/c1cccnc1)NCCCCC1CCN(C(=O)c2ccc(N3CCN(CCSc4cccc5c4C(=O)N(C4CCC(=O)NC4=O)C5=O)CC3)cc2)CC1` (stereo not shown) [SIAIS631068, (E)-N-(4-(1-(4-(4-(2-((2-(2,6-dioxopiperidin-3-yl)-1,3-dioxoisoindolin-4-yl)thio)ethyl)piperazin-1-yl)benzoyl)piperidin-4-yl)butyl)-3-(pyridin-3-yl)acrylamide], for which the IC50 was determined as 74.4 nM.

Take `O=C(/C=C/c1cccnc1)NCCCCC1CCN(C(=O)c2ccc(N3CCN(CCCSc4cccc5c4C(=O)N(C4CCC(=O)NC4=O)C5=O)CC3)cc2)CC1` (stereo not shown) [SIAIS631069, (E)-N-(4-(1-(4-(4-(3-((2-(2,6-dioxopiperidin-3-yl)-1,3-dioxoisoindolin-4-yl)thio)propyl)piperazin-1-yl)benzoyl)piperidin-4-yl)butyl)-3-(pyridin-3-yl)acrylamide]: the midpoint of inhibition, the IC50, lay at 71.2 nM.

Compound `O=C(/C=C/c1cccnc1)NCCCCC1CCN(C(=O)c2ccc(N3CCN(CCCCSc4cccc5c4C(=O)N(C4CCC(=O)NC4=O)C5=O)CC3)cc2)CC1` (stereo not shown) [SIAIS631070, (E)-N-(4-(1-(4-(4-(4-((2-(2,6-dioxopiperidin-3-yl)-1,3-dioxoisoindolin-4-yl)thio)butyl)piperazin-1-yl)benzoyl)piperidin-4-yl)butyl)-3-(pyridin-3-yl)acrylamide] gave an IC50 of 62.9 nM.

`O=C(/C=C/c1cccnc1)NCCCCC1CCN(C(=O)c2ccc(N3CCN(CCCCCSc4cccc5c4C(=O)N(C4CCC(=O)NC4=O)C5=O)CC3)cc2)CC1` (stereo not shown) [SIAIS631071, (E)-N-(4-(1-(4-(4-(5-((2-(2,6-dioxopiperidin-3-yl)-1,3-dioxoisoindolin-4-yl)thio)pentyl)piperazin-1-yl)benzoyl)piperidin-4-yl)butyl)-3-(pyridin-3-yl)acrylamide] came in with an IC50 of 635 nM.

Take `O=C(/C=C/c1cccnc1)NCCCCC1CCN(C(=O)c2ccc(N3CCN(CCCCCCSc4cccc5c4C(=O)N(C4CCC(=O)NC4=O)C5=O)CC3)cc2)CC1` (stereo not shown) [SIAIS631072, (E)-N-(4-(1-(4-(4-(6-((2-(2,6-dioxopiperidin-3-yl)-1,3-dioxoisoindolin-4-yl)thio)hexyl)piperazin-1-yl)benzoyl)piperidin-4-yl)butyl)-3-(pyridin-3-yl)acrylamide]: the IC50 was found to be 63 nM.

Take `O=C(/C=C/c1cccnc1)NCCCCC1CCN(C(=O)c2ccc(N3CCN(CCCCCCCCSc4cccc5c4C(=O)N(C4CCC(=O)NC4=O)C5=O)CC3)cc2)CC1` (stereo not shown) [SIAIS631073, (E)-N-(4-(1-(4-(4-(8-((2-(2,6-dioxopiperidin-3-yl)-1,3-dioxoisoindolin-4-yl)thio)octyl)piperazin-1-yl)benzoyl)piperidin-4-yl)butyl)-3-(pyridin-3-yl)acrylamide]: 62.5 nM corresponded to half-maximal inhibition (IC50).

`O=C(/C=C/c1cccnc1)NCCCCC1CCN(C(=O)c2ccc(N3CCN(CCCCCCCSc4cccc5c4C(=O)N(C4CCC(=O)NC4=O)C5=O)CC3)cc2)CC1` (stereo not shown) [SIAIS631078, (E)-N-(4-(1-(4-(4-(7-((2-(2,6-dioxopiperidin-3-yl)-1,3-dioxoisoindolin-4-yl)thio)heptyl)piperazin-1-yl)benzoyl)piperidin-4-yl)butyl)-3-(pyridin-3-yl)acrylamide] came in with an IC50 of 62.2 nM.

In the case of `O=C(/C=C/c1cccnc1)NCCCCC1CCN(C(=O)c2ccc(N3CCN(C(=O)CCOCCNc4cccc5c4C(=O)N(C4CCC(=O)NC4=O)C5=O)CC3)cc2)CC1` (stereo not shown) [SIAIS631079, (E)-N-(4-(1-(4-(4-(3-(2-((2-(2,6-dioxopiperidin-3-yl)-1,3-dioxoisoindolin-4-yl)amino)ethoxy)propanoyl)piperazin-1-yl)benzoyl)piperidin-4-yl)butyl)-3-(pyridin-3-yl)acrylamide], half-maximal inhibition (IC50) required 7.32 nM.

Take `O=C(/C=C/c1cccnc1)NCCCCC1CCN(C(=O)c2ccc(N3CCN(CCCCCC#Cc4cccc5c4C(=O)N(C4CCC(=O)NC4=O)C5=O)CC3)cc2)CC1` (stereo not shown) [SIAIS631108, (E)-N-(4-(1-(4-(4-(7-(2-(2,6-dioxopiperidin-3-yl)-1,3-dioxoisoindolin-4-yl)hept-6-yn-1-yl)piperazin-1-yl)benzoyl)piperidin-4-yl)butyl)-3-(pyridin-3-yl)acrylamide]: half-maximal inhibition (IC50) required 79.7 nM.

In turn, `O=C(/C=C/c1cccnc1)NCCCCC1CCN(C(=O)c2ccc(N3CCN(C(=O)CCOCCOCCNc4cccc5c4C(=O)N(C4CCC(=O)NC4=O)C5=O)CC3)cc2)CC1` (stereo not shown) [SIAIS631109, (E)-N-(4-(1-(4-(4-(3-(2-(2-((2-(2,6-dioxopiperidin-3-yl)-1,3-dioxoisoindolin-4-yl)amino)ethoxy)ethoxy)propanoyl)piperazin-1-yl)benzoyl)piperidin-4-yl)butyl)-3-(pyridin-3-yl)acrylamide] showed an IC50 of 71.2 nM.

For the compound `O=C(/C=C/c1cccnc1)NCCCCC1CCN(C(=O)c2ccc(N3CCN(C(=O)COCCSc4cccc5c4C(=O)N(C4CCC(=O)NC4=O)C5=O)CC3)cc2)CC1` (stereo not shown) [SIAIS631111, (E)-N-(4-(1-(4-(4-(2-(2-((2-(2,6-dioxopiperidin-3-yl)-1,3-dioxoisoindolin-4-yl)thio)ethoxy)acetyl)piperazin-1-yl)benzoyl)piperidin-4-yl)butyl)-3-(pyridin-3-yl)acrylamide], inhibition was half-maximal at 64.3 nM (IC50).

With `O=C(/C=C/c1cccnc1)NCCCCC1CCN(C(=O)c2ccc(N3CCN(C(=O)COCCOCCSc4cccc5c4C(=O)N(C4CCC(=O)NC4=O)C5=O)CC3)cc2)CC1` (stereo not shown) [SIAIS631112, (E)-N-(4-(1-(4-(4-(2-(2-(2-((2-(2,6-dioxopiperidin-3-yl)-1,3-dioxoisoindolin-4-yl)thio)ethoxy)ethoxy)acetyl)piperazin-1-yl)benzoyl)piperidin-4-yl)butyl)-3-(pyridin-3-yl)acrylamide], 66.7 nM corresponded to half-maximal inhibition (IC50).

As to `O=C(/C=C/c1cccnc1)NCCCCC1CCN(C(=O)c2ccc(N3CCN(C(=O)COCCOCCOCCSc4cccc5c4C(=O)N(C4CCC(=O)NC4=O)C5=O)CC3)cc2)CC1` (stereo not shown) [SIAIS631113, (E)-N-(4-(1-(4-(4-(2-(2-(2-(2-((2-(2,6-dioxopiperidin-3-yl)-1,3-dioxoisoindolin-4-yl)thio)ethoxy)ethoxy)ethoxy)acetyl)piperazin-1-yl)benzoyl)piperidin-4-yl)butyl)-3-(pyridin-3-yl)acrylamide], 68.1 nM corresponded to half-maximal inhibition (IC50).

For the compound `O=C(/C=C/c1cccnc1)NCCCCC1CCN(C(=O)c2ccc(N3CCN(C(=O)COCCOCCOCCOCCSc4cccc5c4C(=O)N(C4CCC(=O)NC4=O)C5=O)CC3)cc2)CC1` (stereo not shown) [SIAIS631114, (E)-N-(4-(1-(4-(4-(14-((2-(2,6-dioxopiperidin-3-yl)-1,3-dioxoisoindolin-4-yl)thio)-3,6,9,12-tetraoxatetradecanoyl)piperazin-1-yl)benzoyl)piperidin-4-yl)butyl)-3-(pyridin-3-yl)acrylamide], the IC50 was found to be 66.5 nM.

These data come from US20250144223A1, “PROTEIN DEGRADATION COMPOUND BASED ON NAMPT TARGET PROTEIN AND APPLICATION THEREOF” (GLUETACS THERAPEUTICS (SHANGHAI) CO., LTD., priority 2021, published 2025).
